Reference: US20090030207A1, “Polymorphs of Dolasetron base and process for preparation thereof” (priority 2007, published 2009)

What was measured:
[1] = Hygroscopicity: water content after 1 week storage at defined relative humidity; assay type: physicochemical; conditions: for WATER CONTENT: 1 week, 25 ± 2° C.; for INITIAL water content: before storage
Text: Hygroscopicity Table and Stability Measurements of Form G and J

[2] = assay type: physicochemical; conditions: for CRYSTAL FORM: 100% relative humidity, 1 week, 25 ± 2° C.
Text: ARL X-ray powder diffractometer model X'TRA-030, Peltier detector, round standard aluminum sample holder with round zero background quartz plate was used. Scanning parameters: Range: 2-40 deg. 2θ, continuous Scan, Rate: 3 deg./min. The accuracy of peak positions is defined as +/−0.2 degrees due to experimental differences like instrumentations, sample preparations etc. Hygroscopicity Table and Stability Measurements of Form G and J

O=C(O[C@@H]1C[C@@H]2C[C@H]3C[C@H](C1)N2CC3=O)c1c[nH]c2ccccc12 [Form J, Dolasetron base]
WATER CONTENT ([1]; 40% relative humidity): <0.1% | WATER CONTENT ([1]; 60% relative humidity): <0.1% | WATER CONTENT ([1]; 80% relative humidity): 0.2% | WATER CONTENT ([1]; 100% relative humidity): 5.5% | INITIAL water content [1]: INITIAL water content: <0.1% | crystalline stability (conversion to another polymorph upon storage) [2]: stable polymorphic form | CRYSTAL FORM [2]: B >> J

O=C(O[C@@H]1C[C@@H]2C[C@H]3C[C@H](C1)N2CC3=O)c1c[nH]c2ccccc12 [Form G, Dolasetron base]
WATER CONTENT ([1]; 40% relative humidity): <0.1% | WATER CONTENT ([1]; 60% relative humidity): <0.1% | WATER CONTENT ([1]; 80% relative humidity): <0.1% | WATER CONTENT ([1]; 100% relative humidity): 4.1% | INITIAL water content [1]: INITIAL water content: 0.1% | crystalline stability (conversion to another polymorph upon storage) [2]: stable polymorphic form | CRYSTAL FORM [2]: B >> G
